Data from patent US20230192661A1, “1, 4, 5, 6-TETRAHYDROPYRIMIDINE-2-AMINE DERIVATIVE” (UBE Corporation, priority 2020, published 2023).
pIC50: −log10 of the molar value.

Test system: TGF-β activation (phosphorylated SMAD3)
Test: TGF-β activation inhibition test (inhibition of SMAD3 phosphorylation in TFK-1 cells)
Assay type: cell-based
Settings: 48 h, fibronectin-coated plate, cultured 2 days, read-out: IC50 (rate of inhibition of phosphorylated SMAD3)
Experimental: In Test Example 3, the inhibition of TGF-β activation by a compound was detected with the inhibition of SMAD3 phosphorylation as an index. In Test Example 3, the same reagents as in Test Example 1 were used unless otherwise specified.
Human fibronectin was prepared at 14 μg/mL with PBS and then dispensed at 50 μL/well to a 96-well plate. The plate was left standing at room temperature for 1 hour or longer, followed by the removal of the fibronectin solution. The plate was washed with PBS and used as a coated plate.
A test compound dissolved in DMSO was added to RPMI medium 1640 (manufactured by Thermo Fisher Scientific, Inc., 11875) containing 1% FBS and 1% penicillin/streptomycin/amphotericin B to prepare a medium containing the test compound having a concentration of two times the final concentration. This medium was added at 100 μL/well to the coated plate. TFK-1 cells (Cell Resource Center for Biomedical Research, Institute of Development, Aging and Cancer, Tohoku University) cultured in RPMI medium 1640 containing 10% FBS and 1% penicillin/streptomycin/amphotericin B were suspended in RPMI medium 1640 containing 1% FBS and 1% penicillin/streptomycin/amphotericin B to prepare a cell suspension of 1×10^6 cells/mL. The prepared cell suspension was further added at 100 μL/well and cultured for 2 days in a 5% CO2 incubator (37° C.).
Phosphorylated SMAD3 in the cells thus cultured for 2 days was measured using Phospho-SMAD3 (Ser423/425) cellular kit (manufactured by cisbio, 63ADK025), and a DeltaF value was calculated according to the calculation expression of the kit. Inhibition when 10 μM LY364947 (FUJIFILM Wako Pure Chemical Corp., 123-05981) was added instead of the test compound was defined as 100% inhibition, and inhibition when DMSO was added instead was defined as 0% inhibition. The rate of inhibition of phosphorylated SMAD3 by the test compound was calculated according to the following expression.
Rate of inhibition of phosphorylated SMAD3 (%)=[1−{(DeltaF value in the case of adding the test compound)−(DeltaF value in the case of adding 10 μM LY364947)}/{(DeltaF value in the case of adding DMSO)−(DeltaF value in the case of adding 10 μM LY364947)}]×100
An IC50 value was calculated from the rate of inhibition of phosphorylated SMAD3 by the test compound. A: IC50<10 nM, B: 10 nM≤IC50<50 nM, C: 50 nM≤IC50<100 nM, or D: IC50≥100 nM.

SMILES	pIC50
O=C(O)C[C@H](NC(=O)CNC(=O)c1cc(NC2=NCC(F)CN2)c2cn[nH]c2c1)c1cccc(-n2cccn2)c1 (stereo partly drawn) [Example 43-(b), (3S)-3-(3-(1H-pyrazol-1-yl)phenyl)-3-(2-(4-((5-fluoro-1,4,5,6-tetrahydropyrimidin-2-yl)amino)-1H-indazole-6-carboxamido)acetamido)propanoic acid]	> 8.00
Cc1cc(C)n(-c2cccc([C@H](CC(=O)O)NC(=O)CNC(=O)c3cc(NC4=NCC(F)CN4)c4cn[nH]c4c3)c2)n1 (stereo partly drawn) [Example 44-(b), (3S)-3-(3-(3,5-dimethyl-1H-pyrazol-1-yl)phenyl)-3-(2-(4-((5-fluoro-1,4,5,6-tetrahydropyrimidin-2-yl)amino)-1H-indazole-6-carboxamido)acetamido)propanoic acid]	> 8.00
O=C(O)C[C@H](NC(=O)CNC(=O)c1cc(NC2=NCC(F)CN2)c2cn[nH]c2c1)c1cccc(N2CCOCC2)c1 (stereo partly drawn) [Example 45-(b), (3S)-3-(2-(4-((5-fluoro-1,4,5,6-tetrahydropyrimidin-2-yl)amino)-1H-indazole-6-carboxamido)acetamido)-3-(3-morpholinophenyl)propanoic acid]	7.30 to 8.00
O=C(O)C[C@H](NC(=O)CNC(=O)c1cc(NC2=NCC(F)CN2)c2cn[nH]c2c1)c1ccc(OC(F)F)cc1 (stereo partly drawn) [Example 46-(b), (3S)-3-(4-(difluoromethoxy)phenyl)-3-(2-(4-((5-fluoro-1,4,5,6-tetrahydropyrimidin-2-yl)amino)-1H-indazole-6-carboxamido)acetamido)propanoic acid]	7.00 to 7.30
O=C(O)C[C@H](NC(=O)CNC(=O)c1cc(NC2=NCC(F)CN2)c2cn[nH]c2c1)c1ccc(C(F)(F)F)cc1 (stereo partly drawn) [Example 47-(b), (3S)-3-(2-(4-((5-fluoro-1,4,5,6-tetrahydropyrimidin-2-yl)amino)-1H-indazole-6-carboxamido)acetamido)-3-(4-(trifluoromethyl)phenyl)propanoic acid]	7.30 to 8.00
O=C(O)C[C@H](NC(=O)CNC(=O)c1cc(NC2=NCC(F)CN2)c2c(F)n[nH]c2c1)c1cc(Cl)cc(C(F)(F)F)c1 (stereo partly drawn) [Example 48-(b), (3S)-3-(3-chloro-5-(trifluoromethyl)phenyl)-3-(2-(3-fluoro-4-((5-fluoro-1,4,5,6-tetrahydropyrimidin-2-yl)amino)-1H-indazole-6-carboxamido)acetamido) propanoic acid]	> 8.00
O=C(O)C[C@H](NC(=O)CNC(=O)c1cc(NC2=NCC(F)CN2)c2c(Cl)n[nH]c2c1)c1cc(Cl)cc(C(F)(F)F)c1 (stereo partly drawn) [Example 49-(b), (3S)-3-(2-(3-chloro-4-((5-fluoro-1,4,5,6-tetrahydropyrimidin-2-yl)amino)-1H-indazole-6-carboxamido)acetamido)-3-(3-chloro-5-(trifluoromethyl)phenyl)propanoic acid]	> 8.00
O=C(O)C[C@H](NC(=O)CNC(=O)c1cc(NC2=NCC(O)CN2)c2cn[nH]c2c1)c1cc(Cl)cc(C(F)(F)F)c1 (stereo partly drawn) [Example 50-(b), (3S)-3-(3-chloro-5-(trifluoromethyl)phenyl)-3-(2-(4-((5-hydroxy-1,4,5,6-tetrahydropyrimidin-2-yl)amino)-1H-indazole-6-carboxamido)acetamido)propanoic acid]	≤ 7.00
O=C(O)C[C@H](NC(=O)CNC(=O)c1cc(NC2=NCCCN2)c2cn[nH]c2c1)c1cc(Cl)cc(C(F)(F)F)c1 [Example 51-(b), (S)-3-(3-chloro-5-(trifluoromethyl)phenyl)-3-(2-(4-((1,4,5,6-tetrahydropyrimidin-2-yl)amino)-1H-indazole-6-carboxamido)acetamido)propanoic acid]	7.00 to 7.30
O=C(O)C[C@H](NC(=O)CNC(=O)c1cc(NC2=NCC(F)CN2)cc2[nH]ncc12)c1cc(Cl)cc(C(F)(F)F)c1 (stereo partly drawn) [Example 52-(b), (3S)-3-(3-chloro-5-(trifluoromethyl)phenyl)-3-(2-(6-((5-fluoro-1,4,5,6-tetrahydropyrimidin-2-yl)amino)-1H-indazole-4-carboxamido)acetamido)propanoic acid]	> 8.00
O=C(O)C[C@H](NC(=O)CNC(=O)c1cc(NC2=NCC(F)CN2)cc2[nH]ncc12)c1cc(Br)cc(C(F)(F)F)c1 (stereo partly drawn) [Example 53-(b), (3S)-3-(3-bromo-5-(trifluoromethyl)phenyl)-3-(2-(6-((5-fluoro-1,4,5,6-tetrahydropyrimidin-2-yl)amino)-1H-indazole-4-carboxamido)acetamido)propanoic acid]	> 8.00
O=C(O)C[C@H](NC(=O)CNC(=O)c1cc(NC2=NCC(F)CN2)cc2[nH]ncc12)c1cc(I)cc(C(F)(F)F)c1 (stereo partly drawn) [Example 54-(b), (3S)-3-(2-(6-((5-fluoro-1,4,5,6-tetrahydropyrimidin-2-yl)amino)-1H-indazole-4-carboxamido)acetamido)-3-(3-iodo-5-(trifluoromethyl)phenyl)propanoic acid]	> 8.00
O=C(O)C[C@H](NC(=O)CNC(=O)c1cc(NC2=NCC(F)CN2)cc2[nH]ncc12)c1ccc(F)c(C(F)(F)F)c1 (stereo partly drawn) [Example 55-(b), (3S)-3-(2-(6-((5-fluoro-1,4,5,6-tetrahydropyrimidin-2-yl)amino)-1H-indazole-4-carboxamido)acetamido)-3-(4-fluoro-3-(trifluoromethyl)phenyl)propanoic acid]	> 8.00
O=C(O)C[C@H](NC(=O)CNC(=O)c1cc(NC2=NCC(F)CN2)cc2[nH]ncc12)c1cccc(C(F)(F)F)c1 (stereo partly drawn) [Example 56-(b), (3S)-3-(2-(6-((5-fluoro-1,4,5,6-tetrahydropyrimidin-2-yl)amino)-1H-indazole-4-carboxamido)acetamido)-3-(3-(trifluoromethyl)phenyl)propanoic acid]	> 8.00
